{"source": "paper PMC6739424", "about": "“Osh Proteins Control Nanoscale Lipid Organization Necessary for PI(4,5)P2 Synthesis” (Molecular Cell, 2019)", "target": "T1, zPIP5K (zebrafish PIP5K1A, zPIP5K1Aα) (Danio rerio, UniProt Q503I3)", "T1 construct": "gene pip5k1aa; kinase domain aa 49-431, His-tagged (pET21b+), E. coli", "T1 sequence (Q503I3 49-431)": "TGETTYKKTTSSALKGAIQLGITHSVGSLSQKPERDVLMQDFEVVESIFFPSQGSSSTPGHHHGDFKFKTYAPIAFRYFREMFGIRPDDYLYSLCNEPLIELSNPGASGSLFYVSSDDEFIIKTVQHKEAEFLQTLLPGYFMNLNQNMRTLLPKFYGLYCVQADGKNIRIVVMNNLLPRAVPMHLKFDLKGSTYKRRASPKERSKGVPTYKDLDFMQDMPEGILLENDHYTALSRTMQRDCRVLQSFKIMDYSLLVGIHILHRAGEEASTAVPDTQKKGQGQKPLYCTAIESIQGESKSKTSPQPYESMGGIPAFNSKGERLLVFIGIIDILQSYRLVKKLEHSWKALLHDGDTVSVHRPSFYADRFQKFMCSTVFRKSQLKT", "assay": "real-time liposome assay with NBD-PHPLCδ PI([…])P2 sensor", "format": "biochemical", "settings": "ATP 80 uM, 2 mM MgCl2, pH 7.5; liposomes without PS or sterol; allosteric sigmoidal fit", "data": [{"substance": "L-α-phosphatidylinositol-4-phosphate [bPI4P]", "values": [{"measurement": "apparent Km", "result": 6.2, "unit": "mol%"}]}]}
